ChEMBL document CHEMBL1201862, “PubChem BioAssay data set” (2004)
Blank lines part the entries; values can stand above or below the compound they belong to. Calls of active or inactive are those of the source.

Key:
[1] = target: T1, Serine/threonine-protein kinase TAO1 (Homo sapiens, UniProt Q7L7X3); format: functional
T1 sequence (Q7L7X3 whole entry): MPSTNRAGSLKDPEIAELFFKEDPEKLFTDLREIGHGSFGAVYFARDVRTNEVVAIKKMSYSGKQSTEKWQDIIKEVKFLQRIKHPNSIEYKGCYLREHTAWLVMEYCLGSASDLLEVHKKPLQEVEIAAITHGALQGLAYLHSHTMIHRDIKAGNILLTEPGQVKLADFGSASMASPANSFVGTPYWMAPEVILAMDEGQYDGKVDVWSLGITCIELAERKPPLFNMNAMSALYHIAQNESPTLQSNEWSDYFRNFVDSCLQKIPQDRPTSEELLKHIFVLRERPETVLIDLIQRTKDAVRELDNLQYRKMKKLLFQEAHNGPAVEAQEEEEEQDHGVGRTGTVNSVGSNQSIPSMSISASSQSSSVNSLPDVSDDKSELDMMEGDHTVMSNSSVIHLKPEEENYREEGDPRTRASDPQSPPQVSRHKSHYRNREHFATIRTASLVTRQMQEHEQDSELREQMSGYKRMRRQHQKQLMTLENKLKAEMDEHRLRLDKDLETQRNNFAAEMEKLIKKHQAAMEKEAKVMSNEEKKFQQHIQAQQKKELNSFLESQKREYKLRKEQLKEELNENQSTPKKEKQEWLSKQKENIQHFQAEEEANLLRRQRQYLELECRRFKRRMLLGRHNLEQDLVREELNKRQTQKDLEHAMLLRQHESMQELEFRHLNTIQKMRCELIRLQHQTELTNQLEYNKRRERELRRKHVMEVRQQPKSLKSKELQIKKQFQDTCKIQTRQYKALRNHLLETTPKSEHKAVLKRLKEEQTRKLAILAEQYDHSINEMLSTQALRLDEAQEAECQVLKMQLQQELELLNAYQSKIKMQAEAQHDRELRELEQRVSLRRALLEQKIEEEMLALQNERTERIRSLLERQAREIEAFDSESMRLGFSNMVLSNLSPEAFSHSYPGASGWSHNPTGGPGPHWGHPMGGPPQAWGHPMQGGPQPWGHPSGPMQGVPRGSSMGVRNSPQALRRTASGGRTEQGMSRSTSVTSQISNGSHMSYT

Focal adhesion kinase 1 = Focal adhesion kinase 1 (Homo sapiens, UniProt Q05397); format: functional;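 also: measured as one member of a kinome panel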
Chain of Focal adhesion kinase 1 (Q05397 whole entry): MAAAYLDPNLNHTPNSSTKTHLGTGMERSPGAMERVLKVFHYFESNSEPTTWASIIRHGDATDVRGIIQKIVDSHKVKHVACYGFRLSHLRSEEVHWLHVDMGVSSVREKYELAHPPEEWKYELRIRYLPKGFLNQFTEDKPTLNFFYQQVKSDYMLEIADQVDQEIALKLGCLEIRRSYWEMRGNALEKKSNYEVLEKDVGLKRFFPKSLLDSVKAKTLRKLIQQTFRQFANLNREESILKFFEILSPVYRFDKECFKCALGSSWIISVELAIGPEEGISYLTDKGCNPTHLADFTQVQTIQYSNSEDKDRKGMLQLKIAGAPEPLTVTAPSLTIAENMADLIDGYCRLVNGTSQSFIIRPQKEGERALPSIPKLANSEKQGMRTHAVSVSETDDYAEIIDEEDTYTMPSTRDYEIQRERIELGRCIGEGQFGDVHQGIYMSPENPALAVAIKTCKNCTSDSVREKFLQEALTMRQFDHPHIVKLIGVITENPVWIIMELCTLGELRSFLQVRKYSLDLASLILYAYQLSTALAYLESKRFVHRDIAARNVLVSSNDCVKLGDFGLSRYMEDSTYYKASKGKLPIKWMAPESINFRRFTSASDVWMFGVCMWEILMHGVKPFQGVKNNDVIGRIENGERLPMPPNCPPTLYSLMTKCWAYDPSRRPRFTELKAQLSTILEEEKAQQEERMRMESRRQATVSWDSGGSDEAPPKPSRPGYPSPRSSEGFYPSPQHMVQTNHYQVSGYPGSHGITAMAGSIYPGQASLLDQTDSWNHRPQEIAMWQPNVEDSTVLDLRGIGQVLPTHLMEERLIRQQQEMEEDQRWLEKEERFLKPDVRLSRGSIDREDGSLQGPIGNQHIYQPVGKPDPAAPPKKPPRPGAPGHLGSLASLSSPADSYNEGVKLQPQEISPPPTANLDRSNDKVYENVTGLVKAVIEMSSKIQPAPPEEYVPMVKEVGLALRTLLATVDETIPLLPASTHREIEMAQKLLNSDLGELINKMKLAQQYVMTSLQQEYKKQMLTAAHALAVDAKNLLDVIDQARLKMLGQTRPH

[2] = target: Rho-associated protein kinase 1 (Homo sapiens, UniProt Q13464); format: functional;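 also: measured within a broad kinome-wide panel profiling many kinases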
Chain of Rho-associated protein kinase 1 (Q13464 whole entry): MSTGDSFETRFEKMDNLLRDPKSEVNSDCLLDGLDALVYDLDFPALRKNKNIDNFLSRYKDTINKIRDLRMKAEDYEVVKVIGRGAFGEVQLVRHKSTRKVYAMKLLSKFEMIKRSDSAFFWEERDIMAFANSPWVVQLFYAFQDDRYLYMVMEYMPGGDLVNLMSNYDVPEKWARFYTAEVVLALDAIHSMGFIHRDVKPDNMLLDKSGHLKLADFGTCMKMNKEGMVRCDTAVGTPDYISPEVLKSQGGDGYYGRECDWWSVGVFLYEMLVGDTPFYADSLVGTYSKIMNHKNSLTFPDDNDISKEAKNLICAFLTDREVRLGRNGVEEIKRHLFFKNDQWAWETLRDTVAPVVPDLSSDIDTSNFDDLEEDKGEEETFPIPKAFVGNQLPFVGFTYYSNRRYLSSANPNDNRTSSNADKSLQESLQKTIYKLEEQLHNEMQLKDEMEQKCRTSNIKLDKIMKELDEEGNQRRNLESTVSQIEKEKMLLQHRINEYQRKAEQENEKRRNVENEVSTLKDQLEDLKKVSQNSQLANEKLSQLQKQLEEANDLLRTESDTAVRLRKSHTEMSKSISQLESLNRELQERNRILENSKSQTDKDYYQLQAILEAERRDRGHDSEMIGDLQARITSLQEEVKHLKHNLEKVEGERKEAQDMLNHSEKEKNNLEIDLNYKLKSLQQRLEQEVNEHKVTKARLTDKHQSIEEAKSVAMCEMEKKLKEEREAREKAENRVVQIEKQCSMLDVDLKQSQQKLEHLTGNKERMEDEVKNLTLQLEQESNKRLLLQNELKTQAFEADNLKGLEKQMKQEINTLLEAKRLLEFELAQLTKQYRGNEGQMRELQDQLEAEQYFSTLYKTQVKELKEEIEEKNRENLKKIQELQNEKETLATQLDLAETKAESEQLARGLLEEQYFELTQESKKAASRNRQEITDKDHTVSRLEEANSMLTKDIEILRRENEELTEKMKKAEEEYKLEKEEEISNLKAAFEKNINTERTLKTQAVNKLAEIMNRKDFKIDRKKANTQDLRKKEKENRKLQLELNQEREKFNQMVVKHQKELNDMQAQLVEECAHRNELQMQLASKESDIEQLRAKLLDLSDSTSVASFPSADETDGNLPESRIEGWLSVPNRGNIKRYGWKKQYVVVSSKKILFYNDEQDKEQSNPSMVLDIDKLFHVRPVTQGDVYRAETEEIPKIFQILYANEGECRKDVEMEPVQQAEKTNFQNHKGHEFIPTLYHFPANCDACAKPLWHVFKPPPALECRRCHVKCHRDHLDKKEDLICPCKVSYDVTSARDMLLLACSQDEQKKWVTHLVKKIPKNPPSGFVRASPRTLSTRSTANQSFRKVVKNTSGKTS

Caspase-6 = target: T2, Caspase-6 (Homo sapiens, UniProt P55212); experiment: inhibition of CASP6 peptide cleavage – biochemical, VEID-R110 fluorescence, cherry-pick, dose response (AID 720632)
T2 sequence (P55212 whole entry): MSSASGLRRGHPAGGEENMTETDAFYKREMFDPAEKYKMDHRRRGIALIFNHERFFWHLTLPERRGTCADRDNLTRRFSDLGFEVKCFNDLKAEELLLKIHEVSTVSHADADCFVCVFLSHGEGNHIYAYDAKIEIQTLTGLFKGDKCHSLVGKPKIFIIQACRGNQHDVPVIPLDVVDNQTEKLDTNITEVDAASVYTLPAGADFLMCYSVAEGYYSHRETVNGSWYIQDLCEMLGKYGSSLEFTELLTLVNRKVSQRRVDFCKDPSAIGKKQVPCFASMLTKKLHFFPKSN

[3] = target: Tyrosyl-DNA phosphodiesterase 2 (Homo sapiens, UniProt O95551); experiment: potency against TDP2 phosphodiesterase activity – biochemical, epi absorbance, IC50, dose response (AID 743297)
Chain of Tyrosyl-DNA phosphodiesterase 2 (O95551 whole entry): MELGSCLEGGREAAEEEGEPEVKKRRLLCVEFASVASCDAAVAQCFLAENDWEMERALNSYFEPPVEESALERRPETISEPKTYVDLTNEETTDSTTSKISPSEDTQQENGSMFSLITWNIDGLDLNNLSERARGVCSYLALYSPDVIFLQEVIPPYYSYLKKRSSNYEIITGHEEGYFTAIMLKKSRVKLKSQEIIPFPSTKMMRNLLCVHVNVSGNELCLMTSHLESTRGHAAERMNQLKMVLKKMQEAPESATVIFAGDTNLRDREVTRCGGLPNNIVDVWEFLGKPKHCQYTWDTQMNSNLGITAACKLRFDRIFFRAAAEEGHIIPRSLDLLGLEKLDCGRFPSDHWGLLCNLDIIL

Caspase-3 = target: T3, Caspase-3 (Homo sapiens, UniProt P42574); experiment: Dose-response confirmation of uHTS inhibitor hits of Sentrin-Specific Protease 8 in a Caspase-3 Fluorescence assay.; format: functional
T3 sequence (P42574 whole entry): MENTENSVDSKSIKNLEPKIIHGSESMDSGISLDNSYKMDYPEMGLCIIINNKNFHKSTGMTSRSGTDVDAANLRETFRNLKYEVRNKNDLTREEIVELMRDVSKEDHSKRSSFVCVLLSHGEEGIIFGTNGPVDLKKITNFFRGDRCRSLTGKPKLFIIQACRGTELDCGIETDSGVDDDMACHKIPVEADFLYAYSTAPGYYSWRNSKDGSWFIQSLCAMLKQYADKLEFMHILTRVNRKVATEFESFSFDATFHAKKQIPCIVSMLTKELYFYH

[4] = viability of PTEN-deleted HCT116 cells – cell-based, HCT116 PTEN knockout, dose response (AID 1047); format: functional;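 also: HCT116 colon tumor cells with PTEN knocked out; cells exposed to compound for 60 hours before readout; potency for loss of cell viability measured by luminescence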
[5] = target: T4, Zinc finger protein mex-5 (Caenorhabditis elegans, UniProt Q9XUB2); experiment: potency of MEX-5 RNA-binding blockers – biochemical, C. elegans, fluorescence polarization, dose response (AID 1960)
T4 sequence (Q9XUB2 whole entry): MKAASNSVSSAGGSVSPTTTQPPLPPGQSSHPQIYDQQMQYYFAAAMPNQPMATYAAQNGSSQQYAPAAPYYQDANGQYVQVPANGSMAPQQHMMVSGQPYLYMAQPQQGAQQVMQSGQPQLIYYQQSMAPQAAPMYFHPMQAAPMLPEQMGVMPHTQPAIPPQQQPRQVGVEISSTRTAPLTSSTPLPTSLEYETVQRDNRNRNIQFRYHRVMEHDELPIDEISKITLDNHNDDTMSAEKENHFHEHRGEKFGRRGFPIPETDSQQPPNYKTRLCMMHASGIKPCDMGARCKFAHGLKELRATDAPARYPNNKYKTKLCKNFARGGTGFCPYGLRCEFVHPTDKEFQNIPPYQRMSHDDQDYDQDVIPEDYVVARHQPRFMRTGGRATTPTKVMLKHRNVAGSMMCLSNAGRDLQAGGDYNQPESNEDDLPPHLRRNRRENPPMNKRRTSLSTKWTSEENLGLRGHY

[6] = target: Polyadenylate-binding protein 1 (Homo sapiens, UniProt P11940); experiment: MLLE domain peptide-binding blockers, IC50 – biochemical, fluorescence polarization, FITC-PAM2 peptide, dose response (AID 602259); format: functional; conditions: read-out: IC50_Mean
Chain of Polyadenylate-binding protein 1 (P11940 whole entry, the tested form may be a part): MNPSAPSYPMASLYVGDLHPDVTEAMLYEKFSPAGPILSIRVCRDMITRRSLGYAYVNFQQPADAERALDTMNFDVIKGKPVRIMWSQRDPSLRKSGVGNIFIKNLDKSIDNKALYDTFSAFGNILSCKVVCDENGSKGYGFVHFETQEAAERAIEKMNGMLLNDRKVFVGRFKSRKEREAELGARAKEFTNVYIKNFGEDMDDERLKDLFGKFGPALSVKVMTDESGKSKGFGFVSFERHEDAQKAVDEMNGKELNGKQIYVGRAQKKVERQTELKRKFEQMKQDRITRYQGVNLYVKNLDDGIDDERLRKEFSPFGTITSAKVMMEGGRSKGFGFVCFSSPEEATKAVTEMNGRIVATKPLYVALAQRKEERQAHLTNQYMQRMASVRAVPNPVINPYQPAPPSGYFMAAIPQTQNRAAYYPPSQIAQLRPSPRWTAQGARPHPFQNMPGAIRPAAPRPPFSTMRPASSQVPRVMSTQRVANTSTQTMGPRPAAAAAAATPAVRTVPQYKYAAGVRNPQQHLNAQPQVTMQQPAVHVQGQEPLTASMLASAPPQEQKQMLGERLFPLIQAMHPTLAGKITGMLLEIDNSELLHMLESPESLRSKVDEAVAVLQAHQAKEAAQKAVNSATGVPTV

- Ki [1]: 0.251 µM (active)
- Ki (Focal adhesion kinase 1): 2 µM (active)
- Ki [2]: 0.00398 µM (active)
SMILES: NC(COc1cncc(-c2ccc3c(c2)C(=Cc2ccc[nH]2)C(=O)N3)c1)Cc1ccccc1 (stereo unspecified)

SMILES: Oc1nc(Nc2ccc(F)cc2)cc2ccccc12
- AC50 (Caspase-6): 0.942 µM (active)
- IC50 [3]: 7.66 µM (active)

- Ki [1]: 0.398 µM (active)
- Ki [2]: > 3.98 µM (inactive)
SMILES: O=C1Nc2cc(-c3ccc(O)cc3)ccc2C1=Cc1ccc[nH]1

- IC50 (Caspase-3): 50.7 µM (active)
SMILES: CN(C)c1cc(N/N=C\c2ccccc2)nc(N(C)C)n1

SMILES: CCN(CC)CCOc1ccc2c(c1)C(=NNC(=O)c1ccccn1)c1cc(OCCN(CC)CC)ccc1-2
- EC50 [4]: 3.25 µM (active)

SMILES: O=C(O)c1ccc2c(c1)[C@@H]1C=CC[C@@H]1[C@H](c1ccccn1)N2
- EC50 [5]: 31.1 µM (inconclusive)
- IC50 [6]: 53.3 µM (inactive)
